Source: patent US8466132B2, “Substituted tetracycline compounds” (Paratek Pharmaceuticals, Inc., priority 2004, dated 2013)

What was measured:
Assay type in all cases: cell-based
[1] = system: S. aureus RN450; assay: In vitro minimum inhibitory concentration (MIC) assay, S. aureus; parameters: key: Compounds which showed superior inhibition of S. aureus, S. pseumoniae and E. coli are indicated by “***,”; compounds which showed very good or good inhibition of S. aureus, S. pseumoniae and E. coli are indicated by “**” or “*” respectively; compounds which showed very good or good inhibition of S. aureus, S. pseumoniae and E. coli are indicated by “**” or “*” respectively; settings: broth microdilution in CAMHB, 35° C., approximately 18 hour
Description: (§1) The following assay is used to determine the efficacy of the tetracycline compounds against common bacteria. 2 mg of each compound is dissolved in 100 μl of DMSO. The solution is then added to cation-adjusted Mueller Hinton broth (CAMHB), which results in a final compound concentration of 200 μg per ml. The tetracycline compound solutions are diluted to 50 μL volumes, with a test compound concentration of 0.098 μg/ml. Optical density (OD) determinations are made from fresh log-phase broth cultures of the test strains. Dilutions are made to achieve a final cell density of 1×10^6 CFU/ml. At OD=1, cell densities for different genera should be approximately:
(§2) 50 μl of the cell suspensions are added to each well of microtiter plates. The final cell density should be approximately 5×10^5 CFU/ml. These plates are incubated at 35° C. in an ambient air incubator for approximately 18 hour. The plates are read with a microplate reader and are visually inspected when necessary. The MIC is defined as the lowest concentration of the tetracycline compound that inhibits growth.
(§3) Table 3 gives the MIC (μg/mL) of selected substituted tetracycline compounds against S. aureus, S. pseuimoniae, and E. coli.

[2] = system: S. pneumoniae 157E; assay: In vitro minimum inhibitory concentration (MIC) assay, S. pneumoniae; parameters: key: Compounds which showed superior inhibition of S. aureus, S. pseumoniae and E. coli are indicated by “***,”; compounds which showed very good or good inhibition of S. aureus, S. pseumoniae and E. coli are indicated by “**” or “*” respectively; compounds which showed very good or good inhibition of S. aureus, S. pseumoniae and E. coli are indicated by “**” or “*” respectively; settings: broth microdilution in CAMHB, 35° C., approximately 18 hour
Description: as §1, §2, §3

[3] = system: E. coli MG 1655; assay: In vitro minimum inhibitory concentration (MIC) assay, E. coli; parameters: key: Compounds which showed superior inhibition of S. aureus, S. pseumoniae and E. coli are indicated by “***,”; compounds which showed very good or good inhibition of S. aureus, S. pseumoniae and E. coli are indicated by “**” or “*” respectively; compounds which showed very good or good inhibition of S. aureus, S. pseumoniae and E. coli are indicated by “**” or “*” respectively; settings: broth microdilution in CAMHB, 35° C., approximately 18 hour
Description: as §1, §2, §3

[4] = in vitro
Description: COS-1 and CHO-K1 cell suspensions were prepared, seeded into 96-well tissue culture treated black-walled microtiter plates (density determined by cell line), and incubated overnight at 37° C., in 5% CO2 and approximately 95% humidity. The following day, serial dilutions of drug were prepared under sterile conditions and transferred to cell plates. Cell/Drug plates were incubated under the above conditions for 24 hours. Following the incubation period, media/drug was aspirated and 50 μL of Resazurin (0.042 mg/ml in PBS w/Ca and Mg) was added. The plates were then incubated under the above conditions for 2 hours and then in the dark at room temperature for an additional 30 minutes. Fluorescence measurements were taken (excitation 535 nm, emission 590 nm). The IC50 (concentration of drug causing 50% growth inhibition) was then calculated.

| Median MIC for S. aureus RN450 [1] | Median MIC for S. pneumoniae 157E [2] | Median MIC for E. coli MG 1655 [3] | IC50 at 24 h [4] | SMILES |
| --- | --- | --- | --- | --- |
| * | *** | * | – | CCONC(=O)c1cc(N(C)C)c2c(c1O)C(=O)C1=C(O)[C@]3(O)C(=O)C(C(N)=O)=C(O)[C@@H](N(C)C)[C@@H]3C[C@@H]1C2 |
| *** | *** | * | – | COC(=O)C#Cc1cc(N(C)C)c2c(c1O)C(=O)C1=C(O)[C@]3(O)C(=O)C(C(N)=O)=C(O)[C@H](N(C)C)[C@@H]3C[C@@H]1C2 |
| *** | ** | * | – | CN(C)c1cc(-c2ncccn2)c(O)c2c1C[C@H]1C[C@H]3[C@H](N(C)C)C(O)=C(C(N)=O)C(=O)[C@@]3(O)C(O)=C1C2=O |
| *** | *** | ** | – | CN(C)c1cc(C#N)c(O)c2c1C[C@H]1C[C@H]3[C@H](N(C)C)C(O)=C(C(N)=O)C(=O)[C@@]3(O)C(O)=C1C2=O |
| * | * | * | – | CN(C)c1cc(C(=O)NOC(C)(C)C)c(O)c2c1C[C@H]1C[C@H]3[C@H](N(C)C)C(O)=C(C(N)=O)C(=O)[C@@]3(O)C(O)=C1C2=O |
| *** | *** | * | – | CCC(=O)c1cc(N(C)C)c2c(c1O)C(=O)C1=C(O)[C@]3(O)C(=O)C(C(N)=O)=C(O)[C@@H](N(C)C)[C@@H]3C[C@@H]1C2 |
| *** | *** | * | – | COCC#Cc1cc(N(C)C)c2c(c1O)C(=O)C1=C(O)[C@]3(O)C(=O)C(C(N)=O)=C(O)[C@@H](N(C)C)[C@@H]3C[C@@H]1C2 |
| *** | *** | * | – | CC(=O)c1cccc(-c2cc(N(C)C)c3c(c2O)C(=O)C2=C(O)[C@]4(O)C(=O)C(C(N)=O)=C(O)[C@@H](N(C)C)[C@@H]4C[C@@H]2C3)c1 |
| * | * | * | – | CN(C)c1cc(-c2cn[nH]c2)c(O)c2c1C[C@H]1C[C@H]3[C@H](N(C)C)C(O)=C(C(N)=O)C(=O)[C@@]3(O)C(O)=C1C2=O |
| *** | *** | * | – | CN(C)c1cc(-c2cnoc2)c(O)c2c1C[C@H]1C[C@H]3[C@H](N(C)C)C(O)=C(C(N)=O)C(=O)[C@@]3(O)C(O)=C1C2=O |
| – | – | – | > 25 µg/mL | CN(C)c1ccc(O)c2c1C[C@H]1C[C@H]3[C@H](N(C)C)C(O)=C(C(N)=O)C(=O)[C@@]3(O)C(O)=C1C2=O [minocycline, Minocycline] |
| ** | * | * | – | CN(C)c1cc(C(=O)N2CCCCCC2)c(O)c2c1C[C@H]1C[C@H]3[C@H](N(C)C)C(O)=C(C(N)=O)C(=O)[C@@]3(O)C(O)=C1C2=O |
| – | – | – | > 25 µg/mL | C[C@H]1c2cccc(O)c2C(=O)C2=C(O)[C@]3(O)C(=O)C(C(N)=O)=C(O)[C@@H](N(C)C)[C@@H]3[C@@H](O)[C@@H]21 [doxycycline, Doxycycline] |
| * | * | * | – | CN(C)c1cc(C(=O)NCCO)c(O)c2c1C[C@H]1C[C@H]3[C@H](N(C)C)C(O)=C(C(N)=O)C(=O)[C@@]3(O)C(O)=C1C2=O |
| ** | ** | * | – | CN(C)c1cc(C(=O)NC(C)(C)C)c(O)c2c1C[C@H]1C[C@H]3[C@H](N(C)C)C(O)=C(C(N)=O)C(=O)[C@@]3(O)C(O)=C1C2=O |
| * | ** | * | – | CN(C)c1cc(-c2ccc(C(N)=O)cc2)c(O)c2c1C[C@H]1C[C@H]3[C@H](N(C)C)C(O)=C(C(N)=O)C(=O)[C@@]3(O)C(O)=C1C2=O |
| *** | *** | * | – | CN(C)c1cc(C(=O)Nc2ccccc2)c(O)c2c1C[C@H]1C[C@H]3[C@H](N(C)C)C(O)=C(C(N)=O)C(=O)[C@@]3(O)C(O)=C1C2=O |
| * | * | * | – | COCCN(C)C(=O)c1cc(N(C)C)c2c(c1O)C(=O)C1=C(O)[C@]3(O)C(=O)C(C(N)=O)=C(O)[C@@H](N(C)C)[C@@H]3C[C@@H]1C2 |
| * | * | * | – | CN(C)c1cc(C(=O)NO)c(O)c2c1C[C@H]1C[C@H]3[C@H](N(C)C)C(O)=C(C(N)=O)C(=O)[C@@]3(O)C(O)=C1C2=O |
| * | * | * | – | CCCNC(=O)c1cc(N(C)C)c2c(c1O)C(=O)C1=C(O)[C@]3(O)C(=O)C(C(N)=O)=C(O)[C@@H](N(C)C)[C@@H]3C[C@@H]1C2 |
